From US20110319640A1, “LARGE-SCALE PURIFICATION OF 2-PYRONE-4,6-DICARBOXYLIC ACID” (KABUSHIKI KAISHA TOYOTA JIDOSHOKKI, priority 2007, published 2011)

Assay: water solubility of PDC and PDC complex salts (FIG. 2)
Type: physicochemical
Conditions: in water; free compound
From the text: Hereinafter, a complex salt formed centering on the Carbonyl group of PDC may be referred to as “a PDC complex salt,” in order to distinguish from a complex salt described in the section of salts of cations. The structure of a […] complex salt is described in many references (for example, Acta. Cryst. (1992) C48, 460-465).

A water solubility of 182 mM was found for `O=C(O)c1cc(C(=O)O)oc(=O)c1` [free PDC, 2-pyrone-4,6-dicarboxylic acid] in this work.
